Measurements: the supplement of paper PMC10307832

Assays:
Test in all cases: relative viability (nuclei count vs DMSO), 5 days (fraction); higher = more cells survive
[1] = compound: CO[C@@H]1[C@H](N(C)C(=O)c2ccccc2)C[C@H]2O[C@]1(C)n1c3ccccc3c3c4c(c5c6ccccc6n2c5c31)C(=O)NC4 [Midostaurin] + CC(=O)c1c(C)c2cnc(Nc3ccc(N4CCNCC4)cn3)nc2n(C2CCCC2)c1=O [Palbociclib] (partner 0.5 µM)
Summary of the method: (§1)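 A single step with final 0.05% Triton X-100, 1% formaldehyde and 1 ug/ml Hoechst fixed the cells and stained nuclei 5 days after treatment. Lung cancer cell lines in 1536-well plates had been treated by pin tool the day after seeding with one drug alone or a fixed anchor-drug dose plus five library-drug doses (not always all listed) in √10 steps, and nuclei were counted on 4× images. Relative viability is the ratio of nuclei in treated wells to nuclei in vehicle wells, taken as the median of duplicate plates.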

[2] = compound: COc1cc(-c2nn([C@H]3CC[C@H](N4CCN(C(C)=O)CC4)CC3)c3ncnc(N)c23)ccc1NC(=O)c1cc2ccccc2n1C + C[C@]1(O)C[C@@H](c2nc(-c3ccc4ccc(-c5ccccc5)nc4c3)c3c(N)nccn32)C1 [Linsitinib] (partner 1 µM)
Summary of the method: as §1

[3] = compound: COc1cc(-c2nn([C@H]3CC[C@H](N4CCN(C(C)=O)CC4)CC3)c3ncnc(N)c23)ccc1NC(=O)c1cc2ccccc2n1C + C[C@@H](Oc1cc(-c2cnn(C3CCNCC3)c2)cnc1N)c1c(Cl)ccc(F)c1Cl [Crizotinib] (partner 1 µM)
Summary of the method: as §1

[4] = compound: COc1cc(-c2nn([C@H]3CC[C@H](N4CCN(C(C)=O)CC4)CC3)c3ncnc(N)c23)ccc1NC(=O)c1cc2ccccc2n1C + CCNC(=O)c1noc(-c2cc(C(C)C)c(O)cc2O)c1-c1ccc(CN2CCOCC2)cc1 [Luminespib] (partner 0.01 µM)
Summary of the method: as §1

Midostaurin + Navitoclax = compound: CO[C@@H]1[C@H](N(C)C(=O)c2ccccc2)C[C@H]2O[C@]1(C)n1c3ccccc3c3c4c(c5c6ccccc6n2c5c31)C(=O)NC4 [Midostaurin] + CC1(C)CCC(c2ccc(Cl)cc2)=C(CN2CCN(c3ccc(C(=O)NS(=O)(=O)c4ccc(N[C@H](CCN5CCOCC5)CSc5ccccc5)c(S(=O)(=O)C(F)(F)F)c4)cc3)CC2)C1 [Navitoclax] (partner 0.5 µM)
Summary of the method: as §1

Cell Line | relative viability ([1]; first compound 0.01 µM) | relative viability ([1]; first compound 0.03162 µM) | relative viability ([1]; first compound 0.1 µM) | relative viability ([1]; first compound 0.3162 µM) | relative viability ([2]; first compound 0.0128 µM) | relative viability ([2]; first compound 0.04048 µM) | relative viability ([2]; first compound 0.128 µM) | relative viability ([2]; first compound 1.28 µM) | relative viability ([3]; first compound 0.0128 µM) | relative viability ([3]; first compound 0.04048 µM) | relative viability ([3]; first compound 0.128 µM) | relative viability ([3]; first compound 1.28 µM) | relative viability ([4]; first compound 0.0128 µM) | relative viability ([4]; first compound 0.04048 µM) | relative viability ([4]; first compound 0.128 µM) | relative viability ([4]; first compound 1.28 µM) | relative viability (Midostaurin + Navitoclax; first compound 0.01 µM) | relative viability (Midostaurin + Navitoclax; first compound 0.03162 µM) | relative viability (Midostaurin + Navitoclax; first compound 0.1 µM) | relative viability (Midostaurin + Navitoclax; first compound 0.3162 µM)
HOP-62 | 0.452 | 0.48 | 0.455 | 0.501 | 0.955 | 0.964 | 0.881 | 0.843 | 0.887 | 0.957 | 0.803 | 0.714 | 0.972 | 0.823 | 1 | 0.879 | 0.928 | 0.981 | 0.957 | 1.04
LC-2-ad | 0.482 | 0.53 | 0.536 | 0.566 | 0.659 | 0.846 | 0.835 | 0.681 | 0.443 | 0.399 | 0.414 | 0.409 | 1.1 | 1.29 | 0.944 | 0.932 | 0.477 | 0.405 | 0.439 | 0.224
LCLC-97TM1 | 0.276 | 0.233 | 0.251 | 0.244 | 0.183 | 0.205 | 0.173 | 0.238 | 0.364 | 0.409 | 0.359 | 0.519 | 0.838 | 0.545 | 0.757 | 0.404 | 0.467 | – | 0.393 | 0.508
LK-2 | 0.595 | 0.692 | 0.701 | 0.861 | 0.554 | 0.522 | 0.461 | 0.231 | 0.215 | 0.259 | 0.187 | 0.199 | 0.21 | 0.171 | 0.21 | 0.159 | 0.831 | 0.876 | 0.843 | 0.825
LOU-NH91 | 0.514 | 0.527 | 0.499 | 0.552 | 0.889 | 1.02 | 1.02 | 0.833 | 0.745 | 0.811 | 0.753 | 0.638 | 0.413 | 0.28 | 0.352 | 0.321 | 0.753 | 0.702 | 0.729 | 0.825
LU99A | 0.386 | 0.513 | 0.371 | 0.386 | 0.555 | 0.563 | 0.543 | 0.524 | 0.629 | 0.522 | 0.545 | 0.696 | 0.261 | 0.251 | 0.261 | 0.277 | 0.819 | 0.788 | 0.576 | 0.792
LXF-289 | 0.625 | 0.615 | 0.645 | 0.642 | 1.02 | 0.927 | 0.939 | 1.08 | 0.863 | 0.794 | 0.864 | 0.98 | 0.783 | 0.732 | 0.663 | 0.702 | 0.954 | 0.92 | 0.875 | 0.968
NCI-H23 | 0.49 | 0.506 | 0.377 | 0.309 | 0.613 | 0.417 | 0.612 | 0.49 | 0.534 | 0.533 | 0.458 | 0.376 | 0.198 | – | 0.201 | 0.191 | 0.875 | 0.95 | 0.396 | 0.788
NCI-H322M | 0.475 | 0.483 | 0.528 | 0.559 | 0.9 | 0.909 | 0.767 | 0.803 | 0.999 | 0.871 | 0.767 | 0.878 | 0.887 | 0.935 | 0.756 | 0.483 | 1.18 | 1.19 | 1.31 | 1.26
NCI-H441 | 0.265 | 0.219 | 0.234 | 0.189 | 0.555 | 0.612 | 0.603 | 0.491 | 0.841 | 0.621 | 0.655 | 0.705 | 0.337 | 0.347 | 0.31 | 0.244 | 0.402 | 0.832 | 0.522 | 0.554
NCI-H460 | 0.13 | 0.195 | 0.183 | 0.0929 | 0.662 | 1.09 | 0.669 | 0.344 | 0.854 | 1.01 | 0.966 | 0.682 | 0.0282 | 0.0389 | 0.0319 | 0.0347 | 1.08 | 0.994 | 1.05 | 1.07
NCI-H520 | 0.24 | 0.228 | 0.246 | 0.276 | 0.715 | 0.795 | 0.9 | 0.683 | 0.763 | 0.621 | 0.628 | 0.549 | 0.219 | 0.211 | 0.174 | 0.243 | 1.05 | 1.17 | 1.02 | 0.865
NCI-H647 | 0.462 | 0.396 | 0.485 | 0.465 | 1.3 | 1.36 | 1.14 | 0.785 | 1.03 | 0.858 | 0.886 | 0.541 | 0.172 | 0.168 | 0.158 | 0.159 | 1.16 | 0.997 | 0.953 | 0.738
NCI-H727 | 0.628 | 0.666 | 0.66 | 0.634 | 0.401 | – | 0.162 | 0.33 | 0.745 | – | 0.626 | 0.587 | 0.417 | – | 0.343 | 0.236 | 0.41 | 0.368 | 0.361 | 0.4
NCI-H838 | 0.237 | 0.229 | 0.251 | 0.185 | 0.974 | 1.1 | 1.06 | 0.657 | 0.809 | 0.854 | 0.759 | 0.534 | 0.343 | 0.303 | 0.243 | 0.261 | 1.23 | 1.04 | 1.02 | 0.354
